Source: patent US20230079819A1, “COMPOUNDS AND USES THEREOF” (Foghorn Therapeutics Inc., priority 2019, published 2023)
Where two headings read alike, the source gives them in different places.

Legend:
[1] = target: T1, BRM (Homo sapiens, UniProt P51531); experiment: ATPase catalytic activity of BRM, ADP-Glo in vitro biochemical assay; conditions: 30 nM BRM, 400 μM ATP
T1 construct: made in house; host or cells: High Five insect cells

[2] = target: T2, BRG-1 (Homo sapiens, UniProt P51532); experiment: ATPase catalytic activity of BRG-1, ADP-Glo in vitro biochemical assay; conditions: 30 nM BRG-1, 400 μM ATP
T2 construct: made in house; host or cells: High Five insect cells

[3] = ATPase catalytic activity, read-out: BRM IP50 (μM)*
[4] = ATPase catalytic activity, read-out: BRG1 IP50 (μM)*
[5] = ATPase catalytic activity, read-out: BRM IP50
[6] = ATPase catalytic activity, read-out: BRG1 IP50

T2 sequence (P51532 whole entry): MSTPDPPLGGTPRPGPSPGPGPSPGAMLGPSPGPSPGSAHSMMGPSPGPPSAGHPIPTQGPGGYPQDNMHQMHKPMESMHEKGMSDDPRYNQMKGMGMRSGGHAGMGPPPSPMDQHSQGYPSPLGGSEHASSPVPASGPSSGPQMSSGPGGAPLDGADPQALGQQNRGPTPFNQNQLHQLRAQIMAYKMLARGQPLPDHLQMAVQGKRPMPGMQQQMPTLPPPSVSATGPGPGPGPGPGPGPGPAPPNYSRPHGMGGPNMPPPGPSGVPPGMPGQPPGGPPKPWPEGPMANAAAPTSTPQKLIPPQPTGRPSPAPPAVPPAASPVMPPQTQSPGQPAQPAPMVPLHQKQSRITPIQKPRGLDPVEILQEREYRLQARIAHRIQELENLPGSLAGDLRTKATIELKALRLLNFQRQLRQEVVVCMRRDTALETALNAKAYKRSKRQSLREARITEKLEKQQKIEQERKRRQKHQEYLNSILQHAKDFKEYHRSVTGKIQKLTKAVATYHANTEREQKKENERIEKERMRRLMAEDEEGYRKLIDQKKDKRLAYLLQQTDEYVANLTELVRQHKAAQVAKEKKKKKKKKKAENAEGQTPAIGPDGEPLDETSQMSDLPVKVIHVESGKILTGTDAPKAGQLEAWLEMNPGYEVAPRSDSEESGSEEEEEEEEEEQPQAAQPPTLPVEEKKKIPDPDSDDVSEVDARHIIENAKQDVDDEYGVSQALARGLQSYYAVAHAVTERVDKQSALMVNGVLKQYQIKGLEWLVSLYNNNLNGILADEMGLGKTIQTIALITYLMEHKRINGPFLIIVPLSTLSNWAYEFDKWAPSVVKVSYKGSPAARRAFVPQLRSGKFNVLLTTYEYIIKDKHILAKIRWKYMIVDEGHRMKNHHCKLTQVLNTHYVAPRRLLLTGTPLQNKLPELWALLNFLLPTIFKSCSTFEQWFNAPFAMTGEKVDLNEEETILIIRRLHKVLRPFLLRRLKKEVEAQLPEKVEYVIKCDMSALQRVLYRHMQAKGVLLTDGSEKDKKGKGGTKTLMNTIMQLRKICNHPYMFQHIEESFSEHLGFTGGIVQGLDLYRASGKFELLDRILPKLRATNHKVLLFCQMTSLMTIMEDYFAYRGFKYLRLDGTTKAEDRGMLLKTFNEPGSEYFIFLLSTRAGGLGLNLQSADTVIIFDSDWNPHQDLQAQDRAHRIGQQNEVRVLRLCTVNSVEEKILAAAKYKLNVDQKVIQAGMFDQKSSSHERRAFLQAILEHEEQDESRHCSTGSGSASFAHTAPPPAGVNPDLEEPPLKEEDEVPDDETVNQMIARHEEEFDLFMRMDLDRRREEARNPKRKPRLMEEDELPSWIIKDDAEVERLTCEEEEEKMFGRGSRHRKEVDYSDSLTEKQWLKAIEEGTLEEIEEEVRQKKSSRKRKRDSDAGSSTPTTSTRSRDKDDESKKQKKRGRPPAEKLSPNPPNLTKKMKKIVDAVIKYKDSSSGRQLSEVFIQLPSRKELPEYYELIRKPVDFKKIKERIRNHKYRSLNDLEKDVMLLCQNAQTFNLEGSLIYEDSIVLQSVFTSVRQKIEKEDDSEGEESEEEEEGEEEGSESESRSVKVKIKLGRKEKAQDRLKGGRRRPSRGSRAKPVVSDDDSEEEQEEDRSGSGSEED
T1 sequence (P51531 whole entry): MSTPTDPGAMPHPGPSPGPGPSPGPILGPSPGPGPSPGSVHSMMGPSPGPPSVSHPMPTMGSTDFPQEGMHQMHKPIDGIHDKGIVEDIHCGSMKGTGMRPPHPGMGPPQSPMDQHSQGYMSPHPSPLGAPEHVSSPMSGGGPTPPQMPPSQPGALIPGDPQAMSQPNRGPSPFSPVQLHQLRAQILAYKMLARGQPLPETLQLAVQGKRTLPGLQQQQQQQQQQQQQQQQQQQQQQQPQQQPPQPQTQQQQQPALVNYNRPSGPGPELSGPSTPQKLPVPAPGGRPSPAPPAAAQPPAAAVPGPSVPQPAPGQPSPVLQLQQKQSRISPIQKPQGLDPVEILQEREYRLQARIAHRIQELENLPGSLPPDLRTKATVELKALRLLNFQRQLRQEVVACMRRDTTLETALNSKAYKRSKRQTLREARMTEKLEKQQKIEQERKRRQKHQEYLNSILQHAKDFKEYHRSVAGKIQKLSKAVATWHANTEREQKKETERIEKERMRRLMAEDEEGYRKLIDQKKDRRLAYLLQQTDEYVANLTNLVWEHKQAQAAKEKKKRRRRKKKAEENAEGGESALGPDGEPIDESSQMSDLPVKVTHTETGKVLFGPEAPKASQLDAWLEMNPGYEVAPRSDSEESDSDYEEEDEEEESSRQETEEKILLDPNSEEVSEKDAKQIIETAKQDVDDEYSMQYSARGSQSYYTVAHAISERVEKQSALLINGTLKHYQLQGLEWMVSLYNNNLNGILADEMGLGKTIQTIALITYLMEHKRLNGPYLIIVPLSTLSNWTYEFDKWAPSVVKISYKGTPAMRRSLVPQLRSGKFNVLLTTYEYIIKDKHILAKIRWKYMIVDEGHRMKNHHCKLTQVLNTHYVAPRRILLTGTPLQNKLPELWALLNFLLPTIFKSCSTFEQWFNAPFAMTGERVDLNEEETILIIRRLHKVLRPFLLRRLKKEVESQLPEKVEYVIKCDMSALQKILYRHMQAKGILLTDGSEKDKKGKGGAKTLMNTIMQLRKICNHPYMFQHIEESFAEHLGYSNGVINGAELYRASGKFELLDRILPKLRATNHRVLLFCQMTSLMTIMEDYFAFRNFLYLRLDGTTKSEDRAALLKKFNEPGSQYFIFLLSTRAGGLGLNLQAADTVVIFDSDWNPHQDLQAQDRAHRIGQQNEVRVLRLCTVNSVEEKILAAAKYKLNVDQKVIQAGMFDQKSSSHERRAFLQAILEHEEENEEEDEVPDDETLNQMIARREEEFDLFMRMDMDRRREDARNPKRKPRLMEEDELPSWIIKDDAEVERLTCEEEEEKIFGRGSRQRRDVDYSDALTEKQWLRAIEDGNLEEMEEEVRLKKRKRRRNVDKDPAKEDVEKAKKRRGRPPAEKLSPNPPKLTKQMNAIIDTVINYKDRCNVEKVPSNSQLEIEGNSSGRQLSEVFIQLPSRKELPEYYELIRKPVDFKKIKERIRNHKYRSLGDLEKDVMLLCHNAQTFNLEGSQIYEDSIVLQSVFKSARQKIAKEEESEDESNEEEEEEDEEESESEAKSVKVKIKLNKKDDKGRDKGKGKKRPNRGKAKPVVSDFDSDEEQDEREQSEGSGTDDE

| IC50 [1, 3] | IC50 [2, 4] | IC50 [1, 5] | IC50 [2, 6] | SMILES | also measured |
| --- | --- | --- | --- | --- | --- |
| > 0.01 µM | > 0.01 µM | – | – | C[C@@H]1CN(c2cccc(-c3cccc(NC(=O)CNC(=O)c4ccn(S(C)(=O)=O)c4)n3)c2)C[C@H](C)O1 [Compound 374, N-[2-[[6-[3-[(cis)-2,6-dimethylmorpholin-4-yl]phenyl]-2-pyridyl]amino]-2-oxo-ethyl]-1-methylsulfonyl-pyrrole-3-carboxamide] | – |
| > 1 µM | > 1 µM | – | – | CS(=O)(=O)n1ccc(C(=O)NCC(=O)Nc2nc(-c3cccc(C4(N)CCOCC4)c3)cs2)c1 [Compound 138, N-(2-((4-(3-(4-aminotetrahydro-2H-pyran-4-yl)phenyl)thiazol-2-yl)amino)-2-oxoethyl)-1-(methylsulfonyl)-1H-pyrrole-3-carboxamide] | – |
| > 0.01 µM | > 0.01 µM | – | – | Cc1cc(-c2cccc(-c3csc(NC(=O)CNC(=O)c4ccn(C(C)(C)C)c4)n3)c2)on1 [Compound 56, 1-(tert-butyl)-N-(2-((4-(3-(3-methylisoxazol-5-yl)phenyl)thiazol-2-yl)amino)-2-oxoethyl)-1H-pyrrole-3-carboxamide] | – |
| > 0.01 µM | > 0.01 µM | – | – | CN1CCc2ccc(-c3csc(NC(=O)CNC(=O)c4ccn(C(C)(C)C)c4)n3)cc21 [Compound 263] | – |
| – | – | > 0.1 µM | > 0.1 µM | C[C@@]1(n2ccc(C(=O)NCC(=O)Nc3nc(-c4cccc(N5CCC5)c4)cs3)c2)CCOC1 [Compound 505] | – |
| – | – | > 0.01 µM | > 0.01 µM | CS(=O)(=O)n1ccc(C(=O)NCC(=O)Nc2nc(-c3cccc([C@H]4CCCCO4)c3)cs2)c1 [Compound 393] | – |
| – | – | > 0.1 µM | > 0.1 µM | CN1C(=O)CC[C@H]2CN(c3cccc(-c4csc(NC(=O)CNC(=O)c5ccn(C(C)(C)C)c5)n4)n3)CC[C@H]21 [Compound 641] | – |
| > 0.01 µM | > 0.1 µM | – | – | CC1(O)CCN(c2cccc(-c3csc(NC(=O)CNC(=O)c4ccn(S(C)(=O)=O)c4)n3)c2)CC1 [Compound 243] | – |
| – | – | > 0.01 µM | > 0.01 µM | CC1(n2ccc(C(=O)NCC(=O)Nc3nc(-c4ccc(F)c(N5CCC5)c4)cs3)c2)COC1 [Compound 510] | – |
| – | – | > 0.01 µM | > 0.01 µM | N#CC1(n2ccc(C(=O)NCC(=O)Nc3nc(-c4cc(F)cc(OC5CC5)c4)cs3)c2)CC1 [Compound 555] | – |
| – | – | – | – | CC(C)(C#N)n1ccc(C(=O)NCC(=O)Nc2nc(-c3cc(F)c4c(c3)OCC4)cs2)n1 [Compound 791] | IC50 ([1]; read-out: BRM IP50): > 0.01 µM; IC50 ([2]; read-out: BRG1 IP50): > 0.01 µM |
| – | – | > 0.01 µM | > 0.01 µM | COC[C@H](NC(=O)c1ccn(S(C)(=O)=O)c1)C(=O)Nc1nc(-c2ccc3c(c2)OC(F)(F)O3)cs1 [Compound 728] | – |
| – | – | > 0.01 µM | > 0.1 µM | COC(=O)N1CCC[C@@H](c2csc(NC(=O)CNC(=O)c3ccn(S(C)(=O)=O)c3)n2)C1 [Compound 578] | – |
| – | – | > 0.1 µM | > 0.1 µM | CC(C)(C)n1ccc(C(=O)NCC(=O)Nc2nc(-c3cccc(N4C[C@@H](F)[C@H](F)C4)n3)cs2)c1 [Compound 677] | – |
| < 0.01 µM | < 0.01 µM | – | – | CC(=O)N(C)c1cc(-c2cccc(-c3csc(NC(=O)CNC(=O)c4ccn(S(C)(=O)=O)c4)n3)c2)ccn1 [Compound 57, N-(2-((4-(3-(2-(N-methylacetamido)pyridin-4-yl)phenyl)thiazol-2-yl)amino)-2-oxoethyl)-1-(methylsulfonyl)-1H-pyrrole-3-carboxamide] | – |
| > 0.01 µM | > 0.01 µM | – | – | COC[C@H](NC(=O)c1ccn(C(C)(C)C)c1)C(=O)Nc1nc(-c2cccc(-c3ccncn3)c2)cs1 [Compound 66, (S)-1-(tert-butyl)-N-(3-methoxy-1-oxo-1-((4-(3-(pyrimidin-4-yl)phenyl)thiazol-2-yl)amino)propan-2-yl)-1H-pyrrole-3-carboxamide] | – |
| > 0.01 µM | > 0.01 µM | – | – | Cn1ncc2ccc(-c3csc(NC(=O)CNC(=O)c4ccn(S(C)(=O)=O)c4)n3)cc21 [Compound 132, N-(2-((4-(1-methyl-1H-indazol-6-yl)thiazol-2-yl)amino)-2-oxoethyl)-1-(methylsulfonyl)-1H-pyrrole-3-carboxamide] | – |

| IC50 [1, 3] | IC50 [2, 4] | IC50 [1, 5] | IC50 [2, 6] | SMILES | also measured |
| --- | --- | --- | --- | --- | --- |
| – | – | < 0.01 µM | < 0.01 µM | Cc1cc(C)nc(-c2cccc(-c3csc(NC(=O)CNC(=O)c4ccn(S(C)(=O)=O)c4)n3)c2)n1 [Compound 405] | – |
| – | – | > 0.01 µM | > 0.01 µM | COc1cccc(-c2csc(NC(=O)CNC(=O)c3ccn(S(C)(=O)=O)c3)n2)c1F [Compound 711] | – |
| – | – | > 0.01 µM | > 0.01 µM | COC[C@H](NC(=O)c1ccn(S(C)(=O)=O)c1)C(=O)Nc1nc(-c2ccc3c(c2)CCN3C)cs1 [Compound 735] | – |
| – | – | < 0.01 µM | < 0.01 µM | CS(=O)(=O)n1ccc(C(=O)NCC(=O)Nc2nc(-c3cc(F)cc(N4CCC4)c3)cs2)c1 [Compound 518] | – |
| < 0.01 µM | < 0.01 µM | – | – | CS(=O)(=O)n1ccc(C(=O)NCC(=O)Nc2nc(-c3cccc(N4CC[C@@H](O)C4)c3)cs2)c1 [Compound 178] | – |
| > 0.01 µM | > 0.01 µM | – | – | CN(C)C1CN(c2cccc(-c3csc(NC(=O)CNC(=O)c4ccn(S(C)(=O)=O)c4)n3)c2)C1 [Compound 175] | – |
| < 0.01 µM | > 0.01 µM | – | – | CS(=O)(=O)n1ccc(C(=O)NCC(=O)Nc2nc(-c3cccc(N4CCC4)c3)cs2)c1 [Compound 233] | – |
| > 0.1 µM | > 0.1 µM | – | – | CC(C)(NC(=O)c1ccn(S(C)(=O)=O)c1)C(=O)Nc1nc(-c2cccc(-c3ccncc3)c2)cs1 [Compound 153] | – |
| – | – | > 0.1 µM | > 0.1 µM | CC(C)(C)n1ccc(C(=O)NCC(=O)Nc2nc(-c3cccc(N4CCC(n5cncn5)CC4)n3)cs2)c1 [Compound 682] | – |
| < 0.01 µM | < 0.01 µM | – | – | C[C@@H]1CN(c2cccc(-c3csc(NC(=O)CNC(=O)c4ccn(S(C)(=O)=O)c4)n3)c2)C[C@H](C)O1 [Compound 10] | – |
| – | – | > 0.1 µM | > 0.1 µM | CO[C@H]1C[C@H](c2cccc(-c3csc(NC(=O)CNC(=O)c4ccn(C(C)(C)C)c4)n3)n2)C1 [Compound 514] | – |
| > 0.1 µM | > 0.1 µM | – | – | CC(C)(Oc1ccncc1)c1cccc(-c2csc(NC(=O)CNC(=O)c3ccn(S(C)(=O)=O)c3)n2)c1 [Compound 102, 1-(methylsulfonyl)-N-(2-oxo-2-((4-(3-(2-(pyridin-4-yloxy)propan-2-yl)phenyl)thiazol-2-yl)amino)ethyl)-1H-pyrrole-3-carboxamide] | – |
| > 0.01 µM | > 0.01 µM | – | – | C[C@@H]1CCCN(c2cccc(-c3csc(NC(=O)CNC(=O)c4ccn(S(C)(=O)=O)c4)n3)c2)C1 [Compound 238] | – |
| – | – | < 0.01 µM | > 0.01 µM | CS(=O)(=O)n1ccc(C(=O)NCC(=O)Nc2nc(-c3ccc4c(c3)CCO4)cs2)c1 [Compound 619] | – |
| > 1 µM | > 1 µM | – | – | CC(C)(C)n1cnc(C(=O)NCC(=O)Nc2nc(-c3cccc(C#N)c3)cs2)c1 [Compound 3, 1-(tert-butyl)-N-(2-((4-(3-cyanophenyl)thiazol-2-yl)amino)-2-oxoethyl)-1H-imidazole-4-carboxamide] | – |
| > 0.1 µM | > 0.1 µM | – | – | CN(C)CC[C@@H](NC(=O)c1ccn(S(C)(=O)=O)c1)C(=O)Nc1nc(-c2cccc(-c3ccncc3)c2)cs1 [Compound 79, (R)—N-(4-(dimethylamino)-1-oxo-1-((4-(3-(pyridin-4-yl)phenyl)thiazol-2-yl)amino)butan-2-yl)-1-(methylsulfonyl)-1H-pyrrole-3-carboxamide] | – |
